Data reported in ChEMBL document CHEMBL4390666, “Chemical manipulations on the 1,4-dioxane ring of 5-HT1A receptor agonists lead to antagonists endowed with antitumor activity in prostate cancer cells” (Eur J Med Chem, 2019).

How the values were obtained:
[1] = target: T1, Alpha-1B adrenergic receptor (Homo sapiens, UniProt P35368); assay: biochemical
T1 sequence (P35368 whole entry): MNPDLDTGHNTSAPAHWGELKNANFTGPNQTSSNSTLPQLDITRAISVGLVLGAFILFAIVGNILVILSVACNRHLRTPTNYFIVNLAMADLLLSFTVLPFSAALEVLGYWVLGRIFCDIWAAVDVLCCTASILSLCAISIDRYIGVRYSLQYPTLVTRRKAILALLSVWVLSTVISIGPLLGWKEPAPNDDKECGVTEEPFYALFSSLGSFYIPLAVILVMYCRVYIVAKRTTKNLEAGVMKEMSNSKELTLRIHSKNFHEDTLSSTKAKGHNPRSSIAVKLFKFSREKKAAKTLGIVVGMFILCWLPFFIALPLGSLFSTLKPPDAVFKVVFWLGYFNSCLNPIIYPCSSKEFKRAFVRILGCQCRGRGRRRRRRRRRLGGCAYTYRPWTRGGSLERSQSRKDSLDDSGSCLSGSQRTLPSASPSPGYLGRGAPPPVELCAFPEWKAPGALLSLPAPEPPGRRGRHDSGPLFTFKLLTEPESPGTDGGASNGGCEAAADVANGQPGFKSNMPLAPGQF
Description: Displacement of [3H]Prazosin from human recombinant alpha 1B adrenergic receptor expressed in CHO cells incubated for 30 mins by radioligand competition binding assay

[2] = target: T2, 5-hydroxytryptamine receptor 1A (Homo sapiens, UniProt P08908); assay: biochemical
T2 sequence (P08908 whole entry): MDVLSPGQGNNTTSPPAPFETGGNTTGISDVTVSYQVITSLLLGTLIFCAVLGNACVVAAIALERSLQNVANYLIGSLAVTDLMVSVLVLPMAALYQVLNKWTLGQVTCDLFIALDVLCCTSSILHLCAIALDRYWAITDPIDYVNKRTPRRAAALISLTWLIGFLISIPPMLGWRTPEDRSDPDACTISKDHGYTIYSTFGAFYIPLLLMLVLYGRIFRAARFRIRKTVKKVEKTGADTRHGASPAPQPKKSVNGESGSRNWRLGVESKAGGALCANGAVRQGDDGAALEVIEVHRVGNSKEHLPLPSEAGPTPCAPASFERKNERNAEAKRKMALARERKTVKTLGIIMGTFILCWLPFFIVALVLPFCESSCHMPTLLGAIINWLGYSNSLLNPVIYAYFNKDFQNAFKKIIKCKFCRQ

[3] = target: T3, Alpha-1D adrenergic receptor (Homo sapiens, UniProt P25100); assay: biochemical
T3 sequence (P25100 whole entry): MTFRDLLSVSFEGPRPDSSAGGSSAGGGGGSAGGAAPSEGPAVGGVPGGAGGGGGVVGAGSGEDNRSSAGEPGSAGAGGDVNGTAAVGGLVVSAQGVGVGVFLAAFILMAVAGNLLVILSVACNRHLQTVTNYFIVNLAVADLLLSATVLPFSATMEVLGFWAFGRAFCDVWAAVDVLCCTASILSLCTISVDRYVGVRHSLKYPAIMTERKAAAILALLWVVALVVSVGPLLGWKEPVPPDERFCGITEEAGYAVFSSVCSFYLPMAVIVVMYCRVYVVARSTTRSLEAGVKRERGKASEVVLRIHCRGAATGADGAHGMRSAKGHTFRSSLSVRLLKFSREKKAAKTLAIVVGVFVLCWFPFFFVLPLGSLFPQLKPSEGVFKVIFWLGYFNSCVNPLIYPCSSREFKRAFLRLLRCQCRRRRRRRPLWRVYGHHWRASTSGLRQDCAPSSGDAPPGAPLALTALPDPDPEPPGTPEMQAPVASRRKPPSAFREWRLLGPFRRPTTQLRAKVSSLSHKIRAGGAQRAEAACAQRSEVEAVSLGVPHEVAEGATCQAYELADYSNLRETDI
Description: Displacement of [3H]Prazosin from human recombinant alpha 1D adrenergic receptor expressed in CHO cells incubated for 30 mins by radioligand competition binding assay

[4] = target: T4, Alpha-1A adrenergic receptor (Homo sapiens, UniProt P35348); assay: biochemical
T4 sequence (P35348 whole entry): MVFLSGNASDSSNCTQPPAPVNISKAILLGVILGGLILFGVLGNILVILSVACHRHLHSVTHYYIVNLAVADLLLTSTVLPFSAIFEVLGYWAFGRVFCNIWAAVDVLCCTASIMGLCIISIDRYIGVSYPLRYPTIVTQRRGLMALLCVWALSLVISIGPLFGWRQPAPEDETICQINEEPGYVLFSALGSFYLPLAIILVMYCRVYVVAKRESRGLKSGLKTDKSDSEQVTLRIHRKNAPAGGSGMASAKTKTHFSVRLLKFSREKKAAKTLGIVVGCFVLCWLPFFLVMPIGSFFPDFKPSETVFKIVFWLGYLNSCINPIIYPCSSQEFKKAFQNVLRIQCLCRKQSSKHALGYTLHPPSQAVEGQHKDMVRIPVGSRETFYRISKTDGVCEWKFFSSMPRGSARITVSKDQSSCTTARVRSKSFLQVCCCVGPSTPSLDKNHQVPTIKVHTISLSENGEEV
Description: Displacement of [3H]Prazosin from human recombinant alpha 1A adrenergic receptor expressed in CHO cells incubated for 30 mins by radioligand competition binding assay

DU-145 = assay: Growth inhibition of human DU145 cells incubated for 48 hrs by SRB assay; type: functional; details: DU-145, 48 h; for CC50: read-out: LC50 (the source's name)
PC-3 = assay: Growth inhibition of human PC3 cells incubated for 48 hrs by SRB assay; type: functional; details: PC-3, 48 h; for CC50: read-out: LC50 (the source's name)
[5] = target: T5, 5-hydroxytryptamine receptor 1A (Homo sapiens) (UniProt P08908); assay: Agonist activity at cloned human 5-HT1A receptor transfected in human HeLa cell membranes assessed as stimulation of [35S]GTPgammaS binding preincubated for 20 mins followed by [35S]GTPgammaS addition and measured after 30 mins by liquid scintillation counting; type: functional
T5 sequence (whole entry): T2 sequence (P08908 whole entry)

Fibroblast = assay: (§1) Growth inhibition of human fibroblast cells incubated for 48 hrs by SRB assay; type: cell-based; details: fibroblast, 48 h
[6] = as §1; type: cell-based; details: human fibroblast cells
[7] = target: T5, 5-hydroxytryptamine receptor 1A (Homo sapiens); assay: Agonist activity at cloned human 5-HT1A receptor transfected in human HeLa cell membranes preincubated for 20 mins followed by [35S]GTPgammaS addition and measured after 30 mins by liquid scintillation counting relative to 8-OH-DPAT; type: functional
D(4) dopamine receptor = target: T6, D(4) dopamine receptor (Homo sapiens, UniProt P21917); assay: Displacement of [3H]N-methylspiperone from human dopamine D4 receptor expressed in HEK293 cell membranes incubated for 1 hr by liquid scintillation counting
T6 sequence (P21917 whole entry): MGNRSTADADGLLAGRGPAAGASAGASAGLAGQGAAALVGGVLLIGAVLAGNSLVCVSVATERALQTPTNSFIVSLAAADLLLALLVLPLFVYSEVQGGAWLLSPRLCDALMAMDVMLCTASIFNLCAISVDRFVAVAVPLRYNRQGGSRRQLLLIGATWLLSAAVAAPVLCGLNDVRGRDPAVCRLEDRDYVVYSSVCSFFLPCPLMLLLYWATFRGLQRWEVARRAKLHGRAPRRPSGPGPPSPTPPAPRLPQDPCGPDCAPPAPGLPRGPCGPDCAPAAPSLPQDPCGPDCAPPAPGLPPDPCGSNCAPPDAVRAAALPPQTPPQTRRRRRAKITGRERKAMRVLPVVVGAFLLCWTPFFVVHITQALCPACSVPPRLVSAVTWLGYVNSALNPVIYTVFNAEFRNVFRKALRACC

D(2) dopamine receptor = D(2) dopamine receptor (Homo sapiens, UniProt P14416); assay: Displacement of [3H]N-methylspiperone from human dopamine D2 receptor expressed in HEK293 cell membranes incubated for 1 hr by liquid scintillation counting
D(3) dopamine receptor = D(3) dopamine receptor (Homo sapiens, UniProt P35462); assay: Displacement of [3H]N-methylspiperone from human dopamine D3 receptor expressed in HEK293 cell membranes incubated for 1 hr by liquid scintillation counting
[8] = target: T5, 5-hydroxytryptamine receptor 1A (Homo sapiens); details: HeLa
Description: Antagonist activity at cloned human 5-HT1A receptor transfected in human HeLa cell membranes preincubated for 20 mins followed by [35S]GTPgammaS addition and measured after 30 mins by liquid scintillation counting

D(3) dopamine receptor, sequence (P35462 whole entry): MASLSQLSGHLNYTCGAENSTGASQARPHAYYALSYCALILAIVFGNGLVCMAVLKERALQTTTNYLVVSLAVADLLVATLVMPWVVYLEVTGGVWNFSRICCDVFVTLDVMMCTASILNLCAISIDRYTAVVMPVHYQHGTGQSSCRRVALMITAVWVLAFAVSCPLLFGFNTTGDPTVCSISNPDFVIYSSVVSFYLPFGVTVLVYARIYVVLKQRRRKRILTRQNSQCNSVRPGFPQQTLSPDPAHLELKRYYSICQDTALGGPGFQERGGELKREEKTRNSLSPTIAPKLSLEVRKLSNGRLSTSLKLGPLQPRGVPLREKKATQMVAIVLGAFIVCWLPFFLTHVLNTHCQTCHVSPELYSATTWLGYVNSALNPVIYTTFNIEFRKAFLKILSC
D(2) dopamine receptor, sequence (P14416 whole entry): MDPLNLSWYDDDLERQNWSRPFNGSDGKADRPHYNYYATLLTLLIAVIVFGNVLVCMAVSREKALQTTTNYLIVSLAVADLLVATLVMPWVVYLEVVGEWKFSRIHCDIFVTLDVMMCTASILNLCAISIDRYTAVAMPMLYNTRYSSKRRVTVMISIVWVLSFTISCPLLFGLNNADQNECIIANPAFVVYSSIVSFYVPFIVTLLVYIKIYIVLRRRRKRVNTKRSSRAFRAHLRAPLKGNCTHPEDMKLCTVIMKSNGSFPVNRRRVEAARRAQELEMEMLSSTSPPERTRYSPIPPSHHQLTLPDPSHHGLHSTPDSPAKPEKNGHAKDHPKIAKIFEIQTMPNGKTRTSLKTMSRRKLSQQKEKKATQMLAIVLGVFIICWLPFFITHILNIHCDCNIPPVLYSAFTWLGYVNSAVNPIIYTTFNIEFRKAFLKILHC

| SMILES | Ki [1] [nM] | Ki [2] [nM] | Ki [3] [nM] | Ki [4] [nM] | also measured |
| --- | --- | --- | --- | --- | --- |
| COc1ccccc1OCCNCC1(c2ccccc2)COCCO1 (configuration not stated) | > 1000 | 75.9 | 69.2 | > 1000 | – |
| COc1ccccc1OCCNCC1COCC(c2ccccc2)(c2ccccc2)O1 (configuration not stated) | – | – | – | – | GI50 (DU-145): 23000 nM; TGI (DU-145): 42000 nM; CC50 (DU-145): 77000 nM; GI50 (PC-3): 26000 nM; TGI (PC-3): 64000 nM; CC50 (PC-3): 157000 nM; pD2 [5]: 9.4; LC50 (Fibroblast): > 300000 nM; TGI (Fibroblast): 121600 nM; GI50 at 48 h [6]: 38400 nM |
| COc1cccc(OC)c1OCCNCC1(c2ccccc2)COCCO1 (configuration not stated) | > 1000 | > 1000 | > 1000 | > 1000 | – |
| COc1ccccc1N1CCN(C[C@H]2OCCO[C@@H]2c2ccccc2)CC1 (relative stereo) | > 1000 | 214 | 53.7 | > 1000 | – |
| c1ccc(OCCNCC2OCCOC2(c2ccccc2)c2ccccc2)cc1 (configuration not stated) | > 1000 | 28.2 | 316 | > 1000 | pD2 [5]: 6.71; Emax [7]: 32.9% |
| COc1cccc(OC)c1OCCNC[C@H]1OCCO[C@@H]1c1ccccc1 (relative stereo) | > 1000 | 97.7 | > 1000 | > 1000 | – |
| COc1ccccc1N1CCN(CC2(c3ccccc3)COCCO2)CC1 (configuration not stated) | > 1000 | 174 | > 1000 | > 1000 | – |
| COc1cccc(OC)c1OCCNC[C@H]1OCCO[C@H]1c1ccccc1 (relative stereo) | > 1000 | 182 | > 1000 | > 1000 | – |
| COc1ccccc1N1CCN(CC2COCC(c3ccccc3)(c3ccccc3)O2)CC1 (configuration not stated) | 22.9 | 5.01 | 1.74 | 2.63 | Ki (D(4) dopamine receptor): 1380 nM; pD2 [5]: 7.01; Emax [7]: 39.3%; Ki (D(2) dopamine receptor): 112 nM; Ki (D(3) dopamine receptor): 257 nM |
| c1ccc(OCCNCC2(c3ccccc3)COCCO2)cc1 (configuration not stated) | > 1000 | 269 | > 1000 | > 1000 | – |
| COc1ccccc1N1CCN(C[C@H]2OCCOC2(c2ccccc2)c2ccccc2)CC1 | 380 | 12 | 89.1 | 355 | GI50 (DU-145): 35000 nM; TGI (DU-145): 80000 nM; CC50 (DU-145): 180000 nM; GI50 (PC-3): 25000 nM; TGI (PC-3): 78000 nM; CC50 (PC-3): 240000 nM; Ki (D(4) dopamine receptor): 9770 nM; LC50 (Fibroblast): > 300000 nM; TGI (Fibroblast): > 300000 nM; GI50 at 48 h [6]: > 300000 nM; Ki (D(2) dopamine receptor): 2190 nM; pKb [8]: 8.14; Ki (D(3) dopamine receptor): 2880 nM |
| c1ccc(OCCNC[C@H]2OCCO[C@@H]2c2ccccc2)cc1 (relative stereo) | > 1000 | 55 | > 1000 | > 1000 | – |
| c1ccc(OCCNC[C@H]2OCCO[C@H]2c2ccccc2)cc1 (relative stereo) | > 1000 | 214 | > 1000 | > 1000 | – |
| COc1ccccc1OCCNC[C@H]1OCCO[C@@H]1c1ccccc1 (relative stereo) | > 1000 | 9.55 | 95.5 | > 1000 | pKb [8]: 8.2 |
| COc1ccccc1N1CCN(C[C@H]2OCCO[C@H]2c2ccccc2)CC1 (relative stereo) | > 1000 | 70.8 | 191 | > 1000 | – |
| COc1cccc(OC)c1OCCNCC1OCCOC1(c1ccccc1)c1ccccc1 (configuration not stated) | > 1000 | 66.1 | > 1000 | > 1000 | – |
| COc1ccccc1OCCNC[C@H]1OCCO[C@H]1c1ccccc1 (relative stereo) | > 1000 | 20.4 | 126 | > 1000 | pD2 [5]: 7.13; Emax [7]: 24.3% |
